In US11712483B2, “Activatable membrane-interacting peptides and methods of use” (priority 2013, dated 2023):
“Also recorded” adds a separate entry of the source. Where no end group is shown, it is not given here. Cy3 = cyanine3 fluorescent dye; Cy5 = cyanine5 fluorescent dye

Legend:
HT29 cells = experiment: Fluorescence microscopy of HT29 cells; format: cell-based
Method: (§1) Cy5 fluorescent dye was conjugated to this promolecule via an N-terminal thiol (module X^1a) to create a promolecule having the structure X^1a-A-X^2—Z, and its interaction with HT29 cells was analyzed using fluorescence microscopy. In this experiment, cells were grown to confluence on glass bottom microwell dishes and the peptide (10 uM) incubated with the cells for between one to three hours and then washed for staining with fluorescently-labeled wheat germ agglutinin. After such staining the cells were covered in typical cell culture media and allowed to grow overnight for another round of imaging.

matriptase = molecular target: T1, matriptase (Homo sapiens, UniProt Q9Y5Y6); experiment: Selective activation in MDA-MB-231 cells, trypan blue, matriptase; format: cell-based; details: exogenous addition of different proteases
T1 sequence (Q9Y5Y6 615-855 limits assumed): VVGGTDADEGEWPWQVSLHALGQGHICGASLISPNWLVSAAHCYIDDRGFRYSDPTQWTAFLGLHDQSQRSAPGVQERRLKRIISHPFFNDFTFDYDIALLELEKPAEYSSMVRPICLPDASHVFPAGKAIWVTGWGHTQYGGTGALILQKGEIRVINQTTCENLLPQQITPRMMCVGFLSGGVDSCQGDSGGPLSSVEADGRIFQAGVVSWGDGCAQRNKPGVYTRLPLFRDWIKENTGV
Method: (§2) To examine the interaction of the promolecule and its activated form with cell membranes rather than artificial membranes, the promolecules were incubated with cells of the breast cancer cell line MDA-MB-231 (approximately 100,000 cells in a volume of […]) for 1 hour at 37° C. in Dulbecco's modified Eagle medium containing 1% fetal bovine serum, and cell viability was assessed using Trypan blue dye exclusion.
as §1

[1] = Intrinsic tryptophan fluorescence with liposomes or detergent micelles; format: binding
From the text: Intrinsic fluorescence was used to characterize promolecules containing one or more tryptophan residues in portion A. As the spectral properties of tryptophan are dependent upon its local environment, this provides unequivocal definition of its partitioning into phospholipid membranes. In aqueous conditions, tryptophan typically emits light near 355 nm when excited with 285 nm light. In contrast, the emitted light is […] or lowered when the tryptophan of the peptide is present in an apolar environment, such as the interior of a phospholipid membrane, and produces a maximum emission wavelength typically in the range of 325 to 345 nm. Both the magnitude and wavelength of light emitted under this fluorescence assay are influenced by the properties of the peptide and the composition of the phospholipid membrane. […] A typical assay employed an 8 μM solution of promolecules and liposomes of defined size (100 nm in diameter, 0.5 mM) composed of phosphatidylserine or phosphatidylcholine or a combination thereof to test the influence of negatively charged or zwitterionic surfaces. […] Time-dependent measurement of the fluorescence emission spectra was used to characterize the activation of the promolecules by thrombin (2 nM) or by other proteases (10 nM or higher).

MDA-MB-231 cells = experiment: Trypan blue dye exclusion, MDA-MB-231 cells; format: cell-based; details: 1 hour, 37° C.
Method: as §2

[2] = in vivo
Method: In order to extend the circulating half-life of the promolecule, it is covalently linked to a molecule of polyethylene glycol (PEG) having a moleculer weight of 1,000 Daltons. The PEG-modified promolecule is administered to a subject and the circulating half-life is measured.

[3] = system: enteropeptidase or thrombin activity; experiment: Fluorescence imaging in a subject, promolecule activated by either of two enzymes; format: in vivo; details: administered to a subject
Method: In order to activate this promolecule, either X^2a or X^2b must be cleaved, so that this promolecule is activated by either thrombin or enteropeptidase activity. The molecule is administered to a subject, and is cleaved in areas having enteropeptidase or thrombin activity, causing portion A to separate from portion Z and interact with membranes in the vicinity.

[4] = system: blood clots formed in vitro; experiment: Blood clots formed on glass slides; design: species or system bovine; details: for accumulation on actively clotting platelets / localization to blood clots: clots on glass slides, fluorescence microscopy; for accumulation on red blood cells: without activation
Method: Whole bovine blood was mixed at a ratio of 5:1 with a 10 nM solution of promolecules bearing the fluorescent dye Cy5. The mixture was then added to 1 uL of activated coagulation factor Xa (10 nM) and calcium chloride (10 mM) to initiate clot formation on the surface of a conventional microscopy slide. The mixture was then stirred with the tip of a plastic pipette for four minutes until a clot was formed. The clot was then pulled gently across the slide with the goal of flattening out the clot for better imaging. A coverslip was then placed on top of the slide and held in place by dabbing the corners with adhesive. The slide was then imaged within a few hours using an epifluorescence microscope (Nikon Eclipse Ti-E) bearing the appropriate filters for detection of the Cy5 dye.

[5] = Förster resonance energy transfer (FRET) to fluorescent liposomes; format: binding; details: 100 nm liposomes, entirely PS
Method: Förster resonance energy transfer (FRET) relies upon the ability of light to be exchanged from one fluorescent moiety to another, which becomes possible only when the moieties are in close proximity to one another, typically less than about 30 Angstroms. Liposomes having similar composition to that used in the intrinsic fluorescence assays were prepared with 1% DiO, a lipid-soluble fluorescent compound whose fluorescence emission characteristics match the excitation wavelength of the promolecule when conjugated to […]. DiO-containing liposomes (1 μM) were mixed with Cy5 containing promolecules or activated peptide portions (20 nM), and the spectral characteristics of the mixture were determined. Cy3 was excited with 545 nm light, and the emission of Cy5 was measured over 650 to 700 nm. The activated peptide portions, but not the promolecules, enabled fluorescence energy transfer, which confirmed the observations made using intrinsic fluorescence.

thrombin = thrombin (Homo sapiens, UniProt P00734); experiment: Thrombin-mediated proteolysis by reverse phase HPLC; format: biochemical; details: digestion by thrombin, Michaelis-Menten
Method: Thrombin-mediated proteolysis of promolecules was performed by incubating the enzyme at concentrations ranging from 0.1 to 2 nM with a 20 to 100 μM solution of the promolecule at 37° C. for up to three or a full twenty-four hours to ensure completeness. The extent of proteolysis was assessed by reverse phase high-pressure liquid chromatography. Samples were run over a C18 column using an acetonitrile gradient of 20% to 80% over a period of 30 minutes. Complete hydrolysis was evident by the absence of the initial peak corresponding to the promolecule, and was further validated using mass spectrometry.

[6] = system: mouse pancreatic duct carcinoma cells; experiment: DRAQ7 exclusion, mouse pancreatic duct adenocarcinoma cells; format: cell-based; details: prolonged incubation, high micromolar concentrations, FIGS. 10 and 11
Method: DRAQ7 is a far-red fluorescent DNA dye that stains the nuclei of dead and permeabilized cells. Unlike trypan blue, it can be combined with other commonly used fluorophores, such as Oregon Green 488 and Cy5. Healthy cells exclude the dye, and no increase in fluorescence is observed. […] When complexed with double stranded DNA, the dye has a maximum excitation wavelength of 643 nm and a maximum emission wavelength of 694 nm. Cells incubated with the promolecule or the activated peptide form of the promolecule in the presence or absence of thrombin (5 nM) were exposed to DRAQ7 (3 μM) for at least 10 minutes and then imaged using two different approaches. In the first approach, the cells were mouse pancreatic duct adenocarcinoma cells, the incubation buffer contained wheat germ agglutinin conjugated with Oregon Green 488, and the cells were visualized with a Nikon Eclipse Ti-E bearing the appropriate filters. In the second approach, mouse X3 fibroblast cells bearing a modified Histone 2A gene fused to green fluorescent protein (GFP) were imaged using an Acumen Ex3—a commercially available confocal microscopy instrument specifically designed for high throughput, content rich and highly multiplexed data applicable to a wide range of biological assays.

(Cy5)FVQWFSKFLGKLLKSRAEDEGLYDDD (Cy5-FVQWFSKFLGKLLKSRAEDEGLYDDD; not fully specified; printed as (Cy5)FVQWFSKFLGKLLKSRAEDEGLYDDD) [SEQ ID NO: 49, matriptase-cleavable promolecule; tested as A-X^2—Z and with Cy5 via N-terminal thiol]
fluorescent signal on cell surface (HT29 cells; Cy5-conjugated promolecule, after co-incubation): accumulated on the surface of the HT29 cells; also recorded: detectable on the surface of cells | internalization into cells (HT29 cells; after washing and further incubation (24 hours)): internalized into the cells; also recorded: localized in punctate spheres inside the cells | activation by matriptase (diminished trypan blue dye exclusion) (matriptase): selectively activated by matriptase | maximum emission wavelength / spectral properties, intrinsic tryptophan fluorescence ([1]; in presence of PC or PS liposomes or detergent micelles compared to buffer alone (PBS)): undergo a limited change | interaction with phospholipid membranes, intrinsic fluorescence ([1]; promolecule A-X^2—Z before activation): moderate restricted interaction with phospholipid membranes | toxicity / cell death, trypan blue dye uptake (MDA-MB-231 cells): Limited toxicity; also recorded: low toxicity; also recorded: did not

PEG-modified promolecule: SEQ ID NO: 52 covalently linked to polyethylene glycol of 1,000 Daltons (CFVQWFSKFLGKLLPRSFLLQDPNDQYEPFW; not fully specified (residue 1, N-terminus); printed as Cy5-CFVQWFSKFLGKLLPRSFLLQDPNDQYEPFW; also: PEG 1000 Da attached, site not given here)
circulating half-life versus non-PEG-modified form [2]: longer circulating half-life than the non-PEG-modified form

(Cy5)CFFWLSKIFPRDDDDKDD (Cy5-CFFWLSKIFPRDDDDKDD) [SEQ ID NO: 53]
detection of Cy5 dye by fluorescence microscopy [3]: the Cy5 dye is detected in areas having enteropeptidase or thrombin activity

(Cy3-K)ILGTILGLLKGLPRSFLLRNPNDKYEPFW (Cy3-KILGTILGLLKGLPRSFLLRNPNDKYEPFW; also: Cy3 conjugated to N-terminal Lys, attachment site not given here) [SEQ ID NO: 48, thrombin-cleavable promolecule with protonectin as portion A, Cy3 on N-terminal lysine]
accumulation on actively clotting platelets / localization to blood clots [4]: intense accumulation of the active form of the promolecule; also recorded: localization of membrane-interacting peptide-containing cleavage products in blood clots | accumulation on red blood cells [4]: did not accumulate on red blood cells | FRET to DiO liposomes composed of phosphatidylserine (PS) [5]: do not associate closely enough with the PS liposomes to enable FRET | Km (thrombin): 0.2 µM

FVQWFSKFLGKLLPRSFLLQDPNDQYEPFW [SEQ ID NO: 47]
peptide-to-cell ratio at which cells did not exclude trypan blue or DRAQ7 (no longer viable) [6]: greater than 10^9 to one

Cy5-CFVQWFSKFLGKLLPRSFLLQDPNDQYEPFW [SEQ ID NO: 52]
accumulation on actively clotting platelets / localization to blood clots [4]: intense accumulation of the activated peptide form of the promolecule; also recorded: localization of the membrane-interacting peptide-containing cleavage product to blood clots | accumulation on red blood cells [4]: did not accumulate on red blood cells
